Assay results from patent US11447494B2, “Tricyclic amine compounds as CDK2 inhibitors” (Incyte Corporation, priority 2019, dated 2022).
pIC50: −log10 of the molar value.

Columns and labels:
[1] = system: CCNE1 amplified COV318 cells; assay: Cell cycle analysis by FACS in COV318 cells after p16 or control siRNA; format: cell-based, human; settings: 100 nM, 16 hours
Protocol: To confirm the role of p16 in CDK2-sensitivity of CCNE-amplified cells, COV318 cells were treated with control or p16-specific siRNA.
(§1) Bulk DNA was stained with DAPI. Compound-treated and DMSO treated control cells were acquired with CytoFlex (Beckman Coulter) and were analyzed using the FlowJo software. For cell cycle analysis of cells with siRNA knockdown, 72 hours after siRNA transfection, cells exposed to […] for 3 hours before detection of Click-iT Alexa Fluor® 647 azide kit.

CDK2/Cyclin E1 = CDK2/Cyclin E1 (Homo sapiens (Human), UniProt P24941); assay: CDK2/Cyclin E1 HTRF enzyme activity assay; format: biochemical; settings: 1 mM ATP
Protocol: CDK2/Cyclin E1 enzyme activity assays utilize full-length human CDK2 co-expressed as N-terminal GST-tagged protein with FLAG-Cyclin E1 in a baculovirus expression system (Carna Product Number 04-165). Assays are conducted in white 384-well polystyrene plates in a final reaction volume of 8 μL. CDK2/Cyclin E1 (0.25 nM) is incubated with compounds (40 nL serially diluted in DMSO) in the presence of ATP (50 μM or 1 mM) and 50 nM ULight™-labeled eIF4E-binding protein 1 (THR37/46) peptide (PerkinElmer) in assay buffer (containing 50 mM HEPES pH 7.5, 1 mM EGTA, 10 mM MgCl2, 2 mM DTT, 0.05 mg/mL BSA, and 0.01% Tween 20) for 60 minutes at room temperature. The reactions are stopped by the addition of EDTA and Europium-labeled anti-phospho-4E-BP1 antibody (PerkinElmer), for a final concentration of 15 mM and 1.5 nM, respectively. HTRF signals are read after 1 hour at room temperature on a PHERAstar FS plate reader (BMG Labtech). Data is analyzed with IDBS XLFit and GraphPad Prism 5.0 software using a three or four parameter dose response curve to determine IC50 for each compound.

[2] = system: CCNE1-non-amplified cell lines (COV504, OV56, Igrov1); assay: Cell cycle analysis by FACS in CCNE1-non-amplified cell lines; format: cell-based, human
Protocol: (§2) The effect of CDK4/6-inhibition in CCNE1-amplified versus CCNE1-non-amplified cell lines was evaluated.
(§3) A similar experiment was performed in a larger set of CCNE1-amplified cell lines (COV318 and OVCAR3) and CCNE1-non-amplified cell lines (COV504, OV56, and Igrov1) (FIG. 6).
as §1

[3] = system: Rb phosphorylation at S780 in CCNE1-non-amplified cell lines (COV504 and OV56); assay: Western blot of Rb phosphorylation at S780 in CCNE1-non-amplified cell lines; format: cell-based, human; settings: 1 or 15 hours, various doses
Protocol: The effect of CDK4/6-inhibition on Rb phosphorylation at S780 in CCNE1-amplified versus CCNE1-non-amplified cell lines was evaluated. […] One or 15 hours after treatment, the cells were harvested and total protein was extracted and analyzed by western blot (FIG. 8).
Whole cell extracts were prepared using RIPA buffer (Thermo Scientific, 89900) with a Halt Protease and Phosphatase Inhibitor Cocktail (Thermo Scientific, 78440). Protein concentration was quantified with a BCA Protein Assay Kit (Thermo Scientific, 23225) and […] of protein lysates were loaded for SDS-PAGE using precast gradient gels (Bio-Rad, Hercules, No. 456-1094). Samples were diluted in 5× Laemmli buffer (300 mM Tris-HCl pH 6.8, 10% SDS (w/v), 5% 2-mercaptoethanol, 25% glycerol (v/v), 0.1% bromophenol blue w/v) and boiled for 5 minutes. […] of proteins were separated by 8-15% SDS-PAGE and transferred onto polyvinylidene fluoride (PVDF) membranes. Unspecific binding sites on the PVDF membranes were blocked with 5% non-fat milk in TBST (20 mM Tris-HCl, pH 7.6, 137 mM NaCl, 1% Tween-20). […] Images were captured by Luminescence/Fluorescence Imaging System Odyssey CLx Imager (LI-COR).

[4] = system: CCNE1-amplified cell lines (COV318, OVCAR3); assay: Cell cycle analysis by FACS in CCNE1-amplified cell lines; format: cell-based, human
Protocol: as §2, §3, §1

SMILES | pIC50 (CDK2/Cyclin E1) | also measured
C[C@@]1(O)CCC[C@H]1n1c(=O)ccc2cnc(NC3CCN(S(C)(=O)=O)CC3)nc21 [Compound A, 8-((1R,2R)-2-hydroxy-2-methylcyclopentyl)-2-((1-(methylsulfonyl)piperidin-4-yl)amino)pyrido[2,3-d]pyrimidin-7(8H)-one] | – | percentage of S phase cells ([1]; control siRNA-treated cells): significantly decreased; percentage of S phase cells ([1]; p16 knocked down cells, vs DMSO): not significantly decreased
CNS(=O)(=O)c1ccc(Nc2ncc3c(n2)-c2c(nc(C)n2C(C)C)CC3)cc1 [Example 1, 4-((1-Isopropyl-2-methyl-4,5-dihydro-1H-imidazo[4,5-h]quinazolin-8-yl)amino)-N-methylbenzenesulfonamide] | ≥ 7.30 | –
Cc1nc2c(n1C)-c1nc(Nc3ccc(S(=O)(=O)N(C)C)cc3)ncc1CC2 [Example 2, 4-((1,2-Dimethyl-4,5-dihydro-1H-imidazo[4,5-h]quinazolin-8-yl)amino)-N,N-dimethylbenzenesulfonamide] | ≥ 7.30 | –
Cc1nc2c(n1C)-c1nc(Nc3ccc(S(C)(=O)=O)cc3)ncc1CC2 [Example 3, 1,2-Dimethyl-N-(4-(methylsulfonyl)phenyl)-4,5-dihydro-1H-imidazo[4,5-h]quinazolin-8-amine] | ≥ 7.30 | –
CNS(=O)(=O)c1ccc(Nc2ncc3c(n2)-c2c(nc(C)n2C)CC3)cc1 [Example 4, 4-((1,2-Dimethyl-4,5-dihydro-1H-imidazo[4,5-h]quinazolin-8-yl)amino)-N-methylbenzenesulfonamide] | ≥ 7.30 | –
CNS(=O)(=O)c1ccc(Nc2ncc3c(n2)-c2c(nc(C)n2C)CC3)c(F)c1 [Example 5, 4-((1,2-Dimethyl-4,5-dihydro-1H-imidazo[4,5-h]quinazolin-8-yl)amino)-3-fluoro-N-methylbenzenesulfonamide] | ≥ 7.30 | –
Cc1nc2c(n1C)-c1nc(Nc3ccc(S(=O)(=O)NC(C)C)cc3)ncc1CC2 [Example 6, 4-((1,2-Dimethyl-4,5-dihydro-1H-imidazo[4,5-h]quinazolin-8-yl)amino)-N-isopropylbenzenesulfonamide] | ≥ 7.30 | –
Cc1nc2c(n1C)-c1nc(Nc3ccc(S(=O)(=O)NCCO)cc3)ncc1CC2 [Example 7, 4-((1,2-Dimethyl-4,5-dihydro-1H-imidazo[4,5-h]quinazolin-8-yl)amino)-N-(2-hydroxyethyl)benzenesulfonamide] | ≥ 7.30 | –
NS(=O)(=O)c1ccc(Nc2ncc3c(n2)-n2ccnc2CC3)cc1 [Example 8, 4-((5,6-Dihydroimidazo[1′,2′:1,6]pyrido[2,3-d]pyrimidin-2-yl)amino)benzenesulfonamide] | ≥ 7.30 | –
NS(=O)(=O)c1ccc(Nc2ncc3c(n2)-n2ccnc2CO3)cc1 [Example 9, 4-((6H-Imidazo[1,2-d]pyrimido[5,4-b][1,4]oxazin-2-yl)amino)benzenesulfonamide] | ≥ 7.30 | –
Cc1nc2c(n1C)-c1nc(Nc3ccc(S(=O)(=O)NCCN(C)C)cc3F)ncc1CC2 [Example 10, 4-((1,2-Dimethyl-4,5-dihydro-1H-imidazo[4,5-h]quinazolin-8-yl)amino)-N-(2-(dimethylamino)ethyl)-3-fluorobenzenesulfonamide] | ≥ 7.30 | –
Cc1nc2c(n1C)-c1nc(Nc3ccc(S(=O)(=O)NCCCN(C)C)cc3F)ncc1CC2 [Example 11, 4-((1,2-Dimethyl-4,5-dihydro-1H-imidazo[4,5-h]quinazolin-8-yl)amino)-N-(3-(dimethylamino)propyl)-3-fluorobenzenesulfonamide] | ≥ 7.30 | –
Cc1nc2c(n1C)-c1nc(Nc3ccc(S(=O)(=O)NCC4CCOC4)cc3F)ncc1CC2 (stereo not shown) [Example 12, 4-((1,2-Dimethyl-4,5-dihydro-1H-imidazo[4,5-h]quinazolin-8-yl)amino)-3-fluoro-N-((tetrahydrofuran-3-yl)methyl)benzenesulfonamide] | ≥ 7.30 | –
CC(=O)c1c(C)c2cnc(Nc3ccc(N4CCNCC4)cn3)nc2n(C2CCCC2)c1=O [palbociclib] | – | percentage of cells at the S phase, compared to DMSO ([2]; COV504, OV56, Igrov1, 16 hours after treatment): decreased in CCNE1-non-amplified cell lines in a dose-dependent fashion; inhibition of proliferation (cell cycle analysis) ([2]; COV504 cells, 16 hours, increasing concentrations): dose-dependent inhibition of the proliferation; Rb phosphorylation at S780 [3]: blocked Rb phosphorylation at S780; percentage of cells at the S phase, compared to DMSO ([4]; COV318 and OVCAR3, 16 hours after treatment): not significantly different; inhibition of proliferation (cell cycle analysis) ([4]; OVCAR3 cells, 16 hours, increasing concentrations): not in CCNE1-amplified cells
